Test results from patent publication US20170081368A1, “PEPTIDES AS OXYTOCIN AGONISTS” (Hoffmann-La Roche Inc., priority 2014, published 2017).
Where a SMILES comes first, the peptide text is derived from it.

Molecular target: T1, human Oxytocin (OTR) receptor (Homo sapiens, UniProt P30559)
T1 construct: expressed in transfected cells
T1 sequence (P30559 1-389): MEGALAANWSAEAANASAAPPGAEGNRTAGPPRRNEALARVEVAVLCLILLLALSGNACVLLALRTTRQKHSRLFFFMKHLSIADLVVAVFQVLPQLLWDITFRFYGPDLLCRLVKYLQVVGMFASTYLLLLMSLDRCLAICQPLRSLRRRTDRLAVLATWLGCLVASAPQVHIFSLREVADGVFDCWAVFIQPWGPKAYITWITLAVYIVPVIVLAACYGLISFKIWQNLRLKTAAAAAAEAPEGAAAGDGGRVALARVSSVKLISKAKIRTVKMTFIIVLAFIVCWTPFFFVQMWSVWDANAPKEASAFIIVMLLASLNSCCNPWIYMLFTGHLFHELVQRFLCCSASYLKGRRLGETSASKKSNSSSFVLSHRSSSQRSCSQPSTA
Test: Calcium flux assay (FLIPR) in CHO cells expressing human OTR
Format: cell-based
Conditions: for Emax: CHO, maximum response normalized to endogenous full agonist = 100%, read-out: hOT efficacy; for EC50: agonist mode, CHO cells, calcium flux FLIPR, read-out: hOT EC50
Source text: Chines Hamster Ovary (CHO) cells were transfected with expression plasmids encoding either the human Vla, the human Oxytocin (OTR) or the humanV2 receptor, the later in combination with the chimeric Gqs5 G protein to redirect the signal to Calcium flux. Stable cells were cloned by limiting dilution to yield monoclonal cell lines expressing either human Vla, human V2+Gqs5 or human OTR receptors and selected based on functional responses detected on a fluorometric imaging plate reader (FLIPR) detecting Calcium flux in the cell after receptor activation. The stable cell lines were grown in F-12 K Nutrient Mixture (Kaighns Modification), containing 10% foetal bovine serum (FBS), 1% penicillin-streptomycin, 1% L-glutamate, 200 ug/ml Geneticin at 37° C. in a 10% CO2 incubator at 95% humidity.
Calcium Flux Assays Using Fluorescent Imaging (Fluorometric Imaging Plate Reader, FLIPR)
On the afternoon before the assay, cells were plated at a density of 50,000 cells/well into black 96 well plates with clear bottoms to allow cell inspection and fluorescence measurements from the bottom of each well. The density of cells was sufficient to yield a confluent monolayer the next day. Hanks balanced salt solution, without phenol red, containing 20 mM HEPES (pH 7.3) and 2.5 mM probenecid (assay buffer) was prepared fresh for each experiment. Compound dilutions were made using a Beckman Biomek 2000 laboratory automation workstation, in assay buffer containing 1% DMSO. The dye-loading buffer consisted of a final concentration of 2 μM Fluo-4-AM (dissolved in DMSO and pluronic acid) in assay buffer. The existing culture media was removed from the wells and 100 μl of the dye-loading buffer was added to each well and incubated for approximately 60 min at 37° C. in a 5% CO2 incubator at 95% humidity. Once dye-loaded, the cells were washed thoroughly on an Embla cell washer with the assay buffer to remove any unincorporated dye. Exactly 100 μl assay buffer was left in each well.
Each 96 well plate containing dye-loaded cells was placed into the FLIPR machine and the laser intensity set to a suitable level to detect low basal fluorescence. To test compounds as agonists, 25 μl diluted compound was added to the plate 10 seconds into the fluorescent measurements and fluorescent response was recorded for 5 minutes. The fluorescence data was normalized to the endogenous full agonist dose-response set at 100% for the maximum response and 0% for the minimum. Each agonist concentration-response curve was constructed using a four parameter logistic equation with Microsoft Excel XLFit as follows: Y=Minimum+((Maximum−Minimum)/(1+10^(LogEC50−X)nH)), where y is the % normalized fluorescence, minimum is the minimum y, maximum is the maximum y, log EC50 is the log10 concentration which produces 50% of the maximum induced fluorescence, x is the log10 of the concentration of the agonist compound and H is the slope of the curve (the Hill Coefficient). The maximum value gives the efficacy of the agonist test compound in percentage. The concentration of agonist that produced a half-maximal response is represented by the EC50 value, the logarithm of which yielded the pEC50 value.

| Emax [%] | EC50 [nM] | SMILES |
| --- | --- | --- |
| 104 | 1 | CCCC[C@H](NC(=O)CN(C)C(=O)[C@@H]1CCS(=O)(=O)CCC(=O)N[C@@H](Cc2ccc(O)cc2)C(=O)N[C@@H]([C@@H](C)CC)C(=O)N[C@@H](CCC(N)=O)C(=O)N[C@@H](CC(N)=O)C(=O)N1)C(=O)NCC(N)=O [Example 9] (HELM PEPTIDE1{Y.I.Q.N.[O=C([C@H](CCS(=O)(=O)CCC(=O)[*:3])N[*:1])[*:2]].[Sar].[Nle].G.[am]}$PEPTIDE1,PEPTIDE1,1:R1-5:R3$$$V2.0) |
| 100 |  | CC[C@H](C)[C@@H]1NC(=O)[C@H](Cc2ccc(O)cc2)NC(=O)CCS(=O)(=O)CC[C@@H](C(=O)N(C)CC(=O)NC(C)(C)C(=O)NCC(N)=O)NC(=O)[C@H](CC(N)=O)NC(=O)[C@H](CCC(N)=O)NC1=O [Example 10] (HELM PEPTIDE1{Y.I.Q.N.[O=C([C@H](CCS(=O)(=O)CCC(=O)[*:3])N[*:1])[*:2]].[Sar].[Aib].G.[am]}$PEPTIDE1,PEPTIDE1,1:R1-5:R3$$$V2.0; C-terminus assumed; bridges inferred) |
| 115 |  | CC[C@H](C)[C@@H]1NC(=O)[C@H](Cc2ccc(O)cc2)NC(=O)CCS(=O)(=O)CC[C@@H](C(=O)N(C)CC(=O)N[C@@H](CC2CCCCC2)C(=O)NCC(N)=O)NC(=O)[C@H](CC(N)=O)NC(=O)[C@H](CCC(N)=O)NC1=O [Example 11] (HELM PEPTIDE1{Y.I.Q.N.[O=C([C@H](CCS(=O)(=O)CCC(=O)[*:3])N[*:1])[*:2]].[Sar].[Cha].G.[am]}$PEPTIDE1,PEPTIDE1,1:R1-5:R3$$$V2.0; C-terminus assumed; bridges inferred) |
| 112 | 1.4 | CC[C@H](C)[C@@H]1NC(=O)[C@H](Cc2ccc(O)cc2)NC(=O)CCS(=O)(=O)CC[C@@H](C(=O)N(C)CC(=O)N[C@H](C(=O)NCC(N)=O)C(C)C)NC(=O)[C@H](CC(N)=O)NC(=O)[C@H](CCC(N)=O)NC1=O [Example 12] (HELM PEPTIDE1{Y.I.Q.N.[O=C([C@H](CCS(=O)(=O)CCC(=O)[*:3])N[*:1])[*:2]].[Sar].V.G.[am]}$PEPTIDE1,PEPTIDE1,1:R1-5:R3$$$V2.0) |
| 117 |  | CC[C@H](C)[C@H](NC(=O)CN(C)C(=O)[C@@H]1CCS(=O)(=O)CCC(=O)N[C@@H](Cc2ccc(O)cc2)C(=O)N[C@@H]([C@@H](C)CC)C(=O)N[C@@H](CCC(N)=O)C(=O)N[C@@H](CC(N)=O)C(=O)N1)C(=O)NCC(N)=O [Example 13] (HELM PEPTIDE1{Y.I.Q.N.[O=C([C@H](CCS(=O)(=O)CCC(=O)[*:3])N[*:1])[*:2]].[Sar].I.G.[am]}$PEPTIDE1,PEPTIDE1,1:R1-5:R3$$$V2.0; C-terminus assumed; bridges inferred) |
| 117 | 0.7 | CCC[C@H](NC(=O)CN(C)C(=O)[C@@H]1CCS(=O)(=O)CCC(=O)N[C@@H](Cc2ccc(O)cc2)C(=O)N[C@@H]([C@@H](C)CC)C(=O)N[C@@H](CCC(N)=O)C(=O)N[C@@H](CC(N)=O)C(=O)N1)C(=O)NCC(N)=O [Example 14] (HELM PEPTIDE1{Y.I.Q.N.[O=C([C@H](CCS(=O)(=O)CCC(=O)[*:3])N[*:1])[*:2]].[Sar].[Nva].G.[am]}$PEPTIDE1,PEPTIDE1,1:R1-5:R3$$$V2.0; C-terminus assumed; bridges inferred) |
| 107 | 1 | CC[C@H](C)[C@@H]1NC(=O)[C@H](Cc2ccc(O)cc2)NC(=O)CCS(=O)(=O)CC[C@@H](C(=O)N(C)CC(=O)N[C@@H](CCC(C)C)C(=O)NCC(N)=O)NC(=O)[C@H](CC(N)=O)NC(=O)[C@H](CCC(N)=O)NC1=O [Example 15] (HELM PEPTIDE1{Y.I.Q.N.[O=C([C@H](CCS(=O)(=O)CCC(=O)[*:3])N[*:1])[*:2]].[Sar].[CC(C)CC[C@H](N[*:1])C(=O)[*:2]].G.[am]}$PEPTIDE1,PEPTIDE1,1:R1-5:R3$$$V2.0) |

More lines, now with the values behind:

| SMILES | Emax [%] | EC50 [nM] |
| --- | --- | --- |
| CC[C@H](C)[C@@H]1NC(=O)[C@H](Cc2ccc(O)cc2)NC(=O)CCS(=O)(=O)CC[C@@H](C(=O)N2CC(F)(F)C[C@H]2C(=O)N[C@@H](CC(C)C)C(=O)NCC(N)=O)NC(=O)[C@H](CC(N)=O)NC(=O)[C@H](CCC(N)=O)NC1=O [Example 3] (HELM PEPTIDE1{Y.I.Q.N.[O=C([C@H](CCS(=O)(=O)CCC(=O)[*:3])N[*:1])[*:2]].[O=C([C@@H]1CC(F)(F)CN1[*:1])[*:2]].L.G.[am]}$PEPTIDE1,PEPTIDE1,1:R1-5:R3$$$V2.0) | 144 | 1.7 |
| CC[C@H](C)[C@@H]1NC(=O)[C@H](Cc2ccc(O)cc2)NC(=O)CCS(=O)(=O)CC[C@@H](C(=O)N2CC[C@H]2C(=O)N[C@@H](CC(C)C)C(=O)NCC(N)=O)NC(=O)[C@H](CC(N)=O)NC(=O)[C@H](CCC(N)=O)NC1=O [Example 4] (HELM PEPTIDE1{Y.I.Q.N.[O=C([C@H](CCS(=O)(=O)CCC(=O)[*:3])N[*:1])[*:2]].[O=C([C@@H]1CCN1[*:1])[*:2]].L.G.[am]}$PEPTIDE1,PEPTIDE1,1:R1-5:R3$$$V2.0) | 128 | 3 |
| CC[C@H](C)[C@@H]1NC(=O)[C@H](Cc2ccc(O)cc2)NC(=O)CCS(=O)(=O)CC[C@@H](C(=O)N2CCCC[C@H]2C(=O)N[C@@H](CC(C)C)C(=O)NCC(N)=O)NC(=O)[C@H](CC(N)=O)NC(=O)[C@H](CCC(N)=O)NC1=O [Example 5] (HELM PEPTIDE1{Y.I.Q.N.[O=C([C@H](CCS(=O)(=O)CCC(=O)[*:3])N[*:1])[*:2]].[O=C([C@@H]1CCCCN1[*:1])[*:2]].L.G.[am]}$PEPTIDE1,PEPTIDE1,1:R1-5:R3$$$V2.0) | 130 | 3.8 |
| CC[C@H](C)[C@@H]1NC(=O)[C@H](Cc2ccc(O)cc2)NC(=O)CCS(=O)(=O)CC[C@@H](C(=O)N2C[C@@H](F)C[C@H]2C(=O)N[C@@H](CC(C)C)C(=O)NCC(N)=O)NC(=O)[C@H](CC(N)=O)NC(=O)[C@H](CCC(N)=O)NC1=O [Example 6] (HELM PEPTIDE1{Y.I.Q.N.[O=C([C@H](CCS(=O)(=O)CCC(=O)[*:3])N[*:1])[*:2]].[O=C([C@@H]1C[C@H](F)CN1[*:1])[*:2]].L.G.[am]}$PEPTIDE1,PEPTIDE1,1:R1-5:R3$$$V2.0; C-terminus assumed; bridges inferred) | 145 |  |
| CC[C@H](C)[C@@H]1NC(=O)[C@H](Cc2ccc(O)cc2)NC(=O)CCS(=O)(=O)CC[C@@H](C(=O)N2C[C@@H](F)C[C@H]2C(=O)N[C@@H](CC(C)C)C(=O)NCC(N)=O)NC(=O)[C@H](CC(N)=O)NC(=O)[C@H](CCC(N)=O)NC1=O [Example 7] (HELM PEPTIDE1{Y.I.Q.N.[O=C([C@H](CCS(=O)(=O)CCC(=O)[*:3])N[*:1])[*:2]].[O=C([C@@H]1C[C@H](F)CN1[*:1])[*:2]].L.G.[am]}$PEPTIDE1,PEPTIDE1,1:R1-5:R3$$$V2.0) | 141 | 2.6 |
| CC[C@H](C)[C@@H]1NC(=O)[C@H](Cc2ccc(O)cc2)NC(=O)CCS(=O)(=O)CC[C@@H](C(=O)N2C[C@H](O)C[C@H]2C(=O)N[C@@H](CC(C)C)C(=O)NCC(N)=O)NC(=O)[C@H](CC(N)=O)NC(=O)[C@H](CCC(N)=O)NC1=O [Example 8] (HELM PEPTIDE1{Y.I.Q.N.[O=C([C@H](CCS(=O)(=O)CCC(=O)[*:3])N[*:1])[*:2]].[Hyp].L.G.[am]}$PEPTIDE1,PEPTIDE1,1:R1-5:R3$$$V2.0) | 129 | 0.8 |
